In brackets after ≈: the same amount, converted by molar mass.
How the values were obtained:
[1] = system: Escherichia coli; experiment: Antibacterial activity against drug-resistant Escherichia coli clinical isolate 1322 incubated for 16 to 20 hrs by broth microdilution method; assay type: functional; settings: time 16-20 hrs
[2] = system: Staphylococcus aureus; experiment: Antibacterial activity against Staphylococcus aureus ATCC25923 incubated for 16 to 20 hrs by broth microdilution method; assay type: functional; settings: time 16-20 hrs
[3] = system: Enterococcus faecalis; experiment: Antibacterial activity against Enterococcus faecalis ATCC29212 incubated for 20 to 24 hrs; assay type: functional; settings: time 20-24 hrs
[4] = system: Staphylococcus aureus; experiment: Bactericidal activity against Staphylococcus aureus ATCC25923 incubated for 20 to 24 hrs; assay type: functional; settings: time 20-24 hrs
[5] = system: Escherichia coli; experiment: Antibacterial activity against drug-resistant Escherichia coli clinical isolate 1333 incubated for 16 to 20 hrs by broth microdilution method; assay type: functional; settings: time 16-20 hrs
[6] = system: Stenotrophomonas maltophilia; experiment: Ratio of MBC to MIC for Stenotrophomonas maltophilia ATCC17808 incubated for 20 to 24 hrs; assay type: functional; settings: time 20-24 hrs
[7] = system: Staphylococcus aureus; experiment: Antibacterial activity against Staphylococcus aureus ATCC25923 incubated for 20 to 24 hrs; assay type: functional; settings: time 20-24 hrs
[8] = system: Enterococcus faecalis; experiment: Ratio of MBC to MIC for Enterococcus faecalis ATCC29212 incubated for 20 to 24 hrs; assay type: functional; settings: time 20-24 hrs
[9] = system: Stenotrophomonas maltophilia; experiment: Antibacterial activity against Stenotrophomonas maltophilia ATCC17808 incubated for 20 to 24 hrs; assay type: functional; settings: time 20-24 hrs
[10] = system: Escherichia coli; experiment: Ratio of MBC to MIC for Escherichia coli ATCC25922 incubated for 20 to 24 hrs; assay type: functional; settings: time 20-24 hrs
[11] = system: Escherichia coli; experiment: Bactericidal activity against Escherichia coli ATCC25922 incubated for 20 to 24 hrs; assay type: functional; settings: time 20-24 hrs
[12] = system: Enterococcus faecalis; experiment: Antibacterial activity against Enterococcus faecalis ATCC29212 incubated for 16 to 20 hrs by broth microdilution method; assay type: functional; settings: time 16-20 hrs
[13] = system: Staphylococcus aureus; experiment: Ratio of MBC to MIC for Staphylococcus aureus ATCC25923 incubated for 20 to 24 hrs; assay type: functional; settings: time 20-24 hrs
[14] = system: Escherichia coli; experiment: Antibacterial activity against Escherichia coli ATCC25922 incubated for 20 to 24 hrs; assay type: functional; settings: time 20-24 hrs
[15] = system: Stenotrophomonas maltophilia; experiment: Antibacterial activity against Stenotrophomonas maltophilia ATCC17808 incubated for 16 to 20 hrs by broth microdilution method; assay type: functional; settings: time 16-20 hrs
[16] = system: Enterococcus faecalis; experiment: Bactericidal activity against Enterococcus faecalis ATCC29212 incubated for 20 to 24 hrs; assay type: functional; settings: time 20-24 hrs
[17] = system: Staphylococcus aureus; experiment: Antibacterial activity against drug-resistant Staphylococcus aureus clinical isolate M20 incubated for 16 to 20 hrs by broth microdilution method; assay type: functional; settings: time 16-20 hrs
[18] = system: Stenotrophomonas maltophilia; experiment: Bactericidal activity against Stenotrophomonas maltophilia ATCC17808 incubated for 20 to 24 hrs; assay type: functional; settings: time 20-24 hrs
[19] = system: Escherichia coli; experiment: Antibacterial activity against Escherichia coli ATCC25922 incubated for 16 to 20 hrs by broth microdilution method; assay type: functional; settings: time 16-20 hrs
[20] = system: Staphylococcus aureus; experiment: Antibacterial activity against Staphylococcus aureus ATCC25923 under 10^5 CFU/ml of bacterial inoculum culture by absorbance based assay; assay type: functional
[21] = system: Escherichia coli; experiment: Antibacterial activity against Escherichia coli ATCC25922 under 10^6 CFU/ml of bacterial inoculum culture by absorbance based assay; assay type: functional
[22] = system: Staphylococcus aureus; experiment: Antibacterial activity against Staphylococcus aureus ATCC25923 under 10^4 CFU/ml of bacterial inoculum culture by absorbance based assay; assay type: functional
[23] = system: Staphylococcus aureus; experiment: Antibacterial activity against Staphylococcus aureus ATCC25923 under 10^6 CFU/ml of bacterial inoculum culture by absorbance based assay; assay type: functional
[24] = system: Escherichia coli; experiment: Antibacterial activity against Escherichia coli ATCC25922 under 10^4 CFU/ml of bacterial inoculum culture by absorbance based assay; assay type: functional
[25] = system: Staphylococcus aureus; experiment: Antibacterial activity against Staphylococcus aureus ATCC25923 under 10^7 CFU/ml of bacterial inoculum culture by absorbance based assay; assay type: functional
[26] = Selectivity index, ratio of IC50 for mouse HT-22 cells to MIC for methicillin-resistant Staphylococcus aureus; assay type: toxicity, cell-based
[27] = system: Escherichia coli; experiment: Antibacterial activity against Escherichia coli ATCC25922 under 10^5 CFU/ml of bacterial inoculum culture by absorbance based assay; assay type: functional
[28] = system: Escherichia coli; experiment: Antibacterial activity against Escherichia coli ATCC25922 under 10^7 CFU/ml of bacterial inoculum culture by absorbance based assay; assay type: functional
[29] = Cytotoxicity against mouse HT-22 cells incubated for 72 hrs by MTT assay; assay type: toxicity, cell-based
[30] = system: Staphylococcus aureus; experiment: Induction of resistance development in Staphylococcus aureus ATCC25923 treated daily with continuous passaging measured after 16 passages by absorbance based assay; assay type: functional; settings: ATCC25923, 384 h, time 16 day
[31] = system: Staphylococcus aureus; experiment: Induction of resistance development in Staphylococcus aureus ATCC25923 treated daily with continuous passaging measured after 13 passages by absorbance based assay; assay type: functional; settings: ATCC25923, 312 h, time 13 day
[32] = system: Escherichia coli; experiment: Induction of resistance development in Escherichia coli ATCC25922 treated daily with continuous passaging measured after 10 passages by absorbance based assay; assay type: functional; settings: ATCC25922, 240 h, time 10 day
[33] = system: Escherichia coli; experiment: Induction of resistance development in Escherichia coli ATCC25922 treated daily with continuous passaging measured after 14 passages by absorbance based assay; assay type: functional; settings: ATCC25922, 336 h, time 14 day
[34] = system: Escherichia coli; experiment: Induction of resistance development in Escherichia coli ATCC25922 treated daily with continuous passaging measured after 5 passages by absorbance based assay; assay type: functional; settings: ATCC25922, 120 h, time 5 day

Structure (SMILES)	MIC [1]	MIC [2]	MIC [3]	MBC [4]	MIC [5]	Ratio [6]	MIC [7]	Ratio [8]	MIC [9]	MIC [12]	MIC [14]	MIC [15]	MBC [16]	MIC [17]	MBC [18]	MIC [19]	MIC [21]	MIC [24]	MIC [27]	MIC [28]	further results
CC[C@H]1OC(=O)C[C@@H](O)[C@H](C)[C@@H](O[C@@H]2O[C@H](C)[C@@H](O)[C@H](N(C)C)[C@H]2O)[C@@H](CCNCc2cn(-c3cnc4ccccc4c3)nn2)C[C@@H](C)C(=O)/C=C/C(C)=C/[C@@H]1CNCc1ccc(C)cc1	1 µg/mL (≈ 1.1 µM)	0.5 µg/mL (≈ 0.549 µM)	1 µg/mL (≈ 1.1 µM)	1 µg/mL (≈ 1.1 µM)	4 µg/mL (≈ 4.39 µM)	2	0.5 µg/mL (≈ 0.549 µM)	2	2 µg/mL (≈ 2.2 µM)	1 µg/mL (≈ 1.1 µM)	0.5 µg/mL (≈ 0.549 µM)	1 µg/mL (≈ 1.1 µM)	8 µg/mL (≈ 8.79 µM)	0.5 µg/mL (≈ 0.549 µM)	4 µg/mL (≈ 4.39 µM)	1 µg/mL (≈ 1.1 µM)	–	–	–	–	Ratio [10]: 2; MBC [11]: 1 µg/mL (≈ 1.1 µM); Ratio [13]: 2
CC[C@H]1OC(=O)C[C@@H](O)[C@H](C)[C@@H](O[C@@H]2O[C@H](C)[C@@H](O)[C@H](N(C)C)[C@H]2O)[C@@H](CCN2CCCCC2)C[C@@H](C)C(=O)/C=C/C(C)=C/[C@@H]1CN1CCCCC1 [TILDIPIROSIN]	4 µg/mL (≈ 5.45 µM)	16 µg/mL (≈ 21.8 µM)	8 µg/mL (≈ 10.9 µM)	4 µg/mL (≈ 5.45 µM)	16 µg/mL (≈ 21.8 µM)	2	0.5 µg/mL (≈ 0.681 µM)	2	8 µg/mL (≈ 10.9 µM)	16 µg/mL (≈ 21.8 µM)	32 µg/mL (≈ 43.6 µM)	1 µg/mL (≈ 1.36 µM)	16 µg/mL (≈ 21.8 µM)	32 µg/mL (≈ 43.6 µM)	16 µg/mL (≈ 21.8 µM)	1 µg/mL (≈ 1.36 µM)	> 32 µg/mL	> 32 µg/mL	> 32 µg/mL	> 32 µg/mL	MIC [20]: 0.5 µg/mL (≈ 0.681 µM); MIC [22]: 0.5 µg/mL (≈ 0.681 µM); MIC [23]: 1 µg/mL (≈ 1.36 µM); Ratio [13]: 8; MIC [25]: 1 µg/mL (≈ 1.36 µM); selectivity ratio [26]: 3.56; IC50 at 72 h [29]: 114 µg/mL (≈ 155 µM)
CC(=O)NC[C@H]1CN(c2ccc(N3CCOCC3)c(F)c2)C(=O)O1 [LINEZOLID]	–	–	–	–	–	–	–	–	–	–	–	> 32 µg/mL	–	–	–	> 32 µg/mL	< 0.063 µg/mL	< 0.063 µg/mL	< 0.063 µg/mL	< 0.063 µg/mL	MIC [30]: 16 µg/mL (≈ 47.4 µM); MIC [31]: 8 µg/mL (≈ 23.7 µM)
CS(=O)(=O)c1ccc([C@@H](O)[C@@H](CF)NC(=O)C(Cl)Cl)cc1 [FLORFENICOL]	–	–	–	–	–	–	–	–	–	–	–	–	–	–	–	–	–	–	–	–	MIC [32]: 16 µg/mL (≈ 44.7 µM); MIC [33]: 32 µg/mL (≈ 89.3 µM); MIC [34]: 8 µg/mL (≈ 22.3 µM)
CC[C@H]1OC(=O)C[C@@H](O)[C@H](C)[C@@H](O[C@@H]2O[C@H](C)[C@@H](O)[C@H](N(C)C)[C@H]2O)[C@@H](CCN(C)Cc2cn(-c3cnc4ccccc4c3)nn2)C[C@@H](C)C(=O)/C=C/C(C)=C/[C@@H]1CN(C)Cc1ccccc1	1 µg/mL (≈ 1.08 µM)	0.5 µg/mL (≈ 0.541 µM)	4 µg/mL (≈ 4.33 µM)	> 32 µg/mL	2 µg/mL (≈ 2.16 µM)	4	16 µg/mL (≈ 17.3 µM)	2	4 µg/mL (≈ 4.33 µM)	1 µg/mL (≈ 1.08 µM)	1 µg/mL (≈ 1.08 µM)	1 µg/mL (≈ 1.08 µM)	8 µg/mL (≈ 8.66 µM)	0.5 µg/mL (≈ 0.541 µM)	16 µg/mL (≈ 17.3 µM)	1 µg/mL (≈ 1.08 µM)	–	–	–	–	Ratio [10]: 4; MBC [11]: 4 µg/mL (≈ 4.33 µM)
CC[C@H]1OC(=O)C[C@@H](O)[C@H](C)[C@@H](O[C@@H]2O[C@H](C)[C@@H](O[C@H]3C[C@@](C)(O)[C@@H](O)[C@H](C)O3)[C@H](N(C)C)[C@H]2O)[C@@H](CC=O)C[C@@H](C)C(=O)/C=C/C(C)=C/[C@@H]1CO[C@@H]1O[C@H](C)[C@@H](O)[C@@H](OC)[C@H]1OC [TYLOSIN]	> 32 µg/mL	0.5 µg/mL (≈ 0.546 µM)	–	–	> 32 µg/mL	–	–	–	–	0.5 µg/mL (≈ 0.546 µM)	–	> 32 µg/mL	–	0.5 µg/mL (≈ 0.546 µM)	–	> 32 µg/mL	2 µg/mL (≈ 2.18 µM)	1 µg/mL (≈ 1.09 µM)	1 µg/mL (≈ 1.09 µM)	2 µg/mL (≈ 2.18 µM)	MIC [20]: 2 µg/mL (≈ 2.18 µM); MIC [22]: 1 µg/mL (≈ 1.09 µM); MIC [23]: 4 µg/mL (≈ 4.37 µM); MIC [25]: 4 µg/mL (≈ 4.37 µM)
